According to PubChem BioAssay AID743267 (Broad Institute, 2014):

These compounds were tested on human bronchial epithelial cells, CFTR corrector, plate reader (assay: rescue of ΔF508 CFTR function, airway epithelium – human bronchial epithelial cells, plate reader, cherry-pick, two tests, dose response (AID 743267)). Settings: measured here: test 1 replicate run.
Work on `COC(=O)C[C@@H]1CC[C@@H]2[C@H](COc3ccc(NC(=O)c4cc(C)on4)cc3C(=O)N2C)O1` yielded an AC50 of 3.67 µM.
`C[C@H](CO)N1C[C@H](C)[C@@H](CN(C)Cc2ccc(Cl)c(Cl)c2)Oc2ccc(NC(=O)Nc3ccc(C(F)(F)F)cc3)cc2CC1=O` showed an AC50 of 16 µM.
Work on `C[C@@H]1CN([C@@H](C)CO)C(=O)Cc2cc(N(C)C)ccc2O[C@@H]1CN(C)Cc1ccccc1` yielded an AC50 of 3.78 µM.
Work on `N#Cc1ccc(-c2ccc3c(c2)[C@H]2[C@H](CCN2S(=O)(=O)c2ccccc2F)[C@@H](CO)N3)cc1` yielded an AC50 of 6.96 µM.
In the case of `C[C@H](CO)N1C[C@H](C)[C@H](CN(C)C(=O)NC2CCCCC2)Oc2cc(C#Cc3ccc(F)cc3)ccc2S1(=O)=O`, the AC50 is reported as 7.62 µM.
For `COc1ccc(S(=O)(=O)N2CC[C@@H]3[C@@H](CO)Nc4ccc(-c5ccc(C#N)cc5)cc4[C@@H]32)cc1`, the AC50 was 1.57 µM.

Same assay, conditions: measured here: test 2 replicate run
With `CC(=O)O[C@H]1C(=O)[C@@]2(C)[C@H]([C@H](OC(=O)c3ccccc3)[C@]3(O)C[C@H](OC(=O)[C@H](O)C(NC(=O)c4ccccc4)c4ccccc4)C(C)=C1C3(C)C)[C@]1(OC(C)=O)CO[C@@H]1C[C@@H]2O` (stereo partly specified) the AC50 was 3.59 µM.
`COc1ccc(NC(=O)c2cc(S(=O)(=O)N3CCOCC3)ccc2C)cc1S(=O)(=O)N1CCOCC1` was tested, and the AC50 was > 50 µM.
`O=C(N/N=C/c1ccccc1OC(F)F)c1cc(-c2ccncc2)nc2ccccc12` showed an AC50 of 0.798 µM.
In the case of `CC(=O)Oc1ccc(N2C(=O)c3cccc4c([N+](=O)[O-])ccc(c34)C2=O)cc1`, the AC50 is reported as 20.6 µM.
In the case of `COc1cccc(/C=N/NC(=O)C(=O)N/N=C/c2cccc(OC)c2O)c1O`, the AC50 is reported as 40.1 µM.
`CC(=NNC(=O)c1ccncc1)c1ccc2ccccc2c1O` was tested, and the AC50 was 7.94 µM.
Work on `COc1ccc(C2CN=NC23CCc2ccccc2C3=O)cc1` (stereo unspecified) yielded an AC50 of 38.9 µM.
With `NCC(=O)NNC(=O)OCC1c2ccccc2-c2ccccc21` the AC50 was 7.38 µM.
`O=C1c2cccc(NCCCNCCO)c2C(=O)c2cccc(NCCCNCCO)c21` was tested, and the AC50 was 16 µM.
In the case of `CN1C(=O)c2cccc3c(N)ccc(c23)C1=O`, the AC50 is reported as 18.3 µM.
In the case of `C/C(=N\NC(=O)c1cc(-c2cccs2)nc2ccccc12)c1ccccn1`, the AC50 is reported as 2.45 µM.
`COc1cccc(/C=N/Nc2ncnc(Cl)c2N)c1O` showed an AC50 of 12.8 µM.
Work on `CCN(CC)c1ccc2c(cc1=O)[C@@H](NC)CCc1cc(OC)c(OC)c(OC)c1-2` yielded an AC50 of 1.31 µM.
`Cc1ccc(-c2csc3ncn(CC#N)c(=O)c23)cc1C` was tested, and the AC50 was 35.7 µM.
`CC(=O)Nc1ccc(S(=O)(=O)Nc2cccc(-c3nc4cc(C)ccc4o3)c2)cc1` gave an AC50 of 8.92 µM.
`C=CCn1c(SCC(=O)N(C)C2CCS(=O)(=O)C2)nc2ccccc2c1=O` (stereo unspecified) was tested, and the AC50 was 26.7 µM.
For `N#Cc1ccc(-c2cccs2)nc1SCc1cccnc1`, the AC50 was 0.519 µM.
`O=C(CSC1=NCCN1)Nc1cccc([N+](=O)[O-])c1` gave an AC50 of 14.1 µM.
With `COc1ccc(N(C)S(=O)(=O)c2cccc(C(=O)NCC3CCCCC3)c2)cc1` the AC50 was 48.2 µM.
`COc1ccc(-c2cc(C(F)F)n3ncc(C(=O)N4CCc5ccccc54)c3n2)cc1` showed an AC50 of 16.1 µM.
`Cc1cccc2c(N=Nc3ccc(S(=O)(=O)Nc4ccc(Cl)cc4)cc3[N+](=O)[O-])c(O)[nH]c12` was tested, and the AC50 was > 50 µM.
For `CCN(CC)C(=O)c1oc2ccc(S(=O)(=O)N3CC(C)CC(C)C3)cc2c1C` (stereo unspecified), the AC50 was 10.5 µM.
`CN[C@H]1CCc2cc(OC)c(OC)c(OC)c2-c2ccc(N(C)CC(OC)OC)c(=O)cc21` was tested, and the AC50 was 3.25 µM.
In the case of `COc1ccc(C)cc1NC(=O)CNC(c1ccccc1)c1ccc(C)cc1` (stereo unspecified), the AC50 is reported as 2.03 µM.
With `COc1cccc(C2c3cc4c(cc3OC(NNC(N)=O)C2C)OCO4)c1O` (stereo unspecified) the AC50 was 3.18 µM.
For `O=c1[nH]c(CN2CCN(c3ccc(O)cc3)CC2)nc2scc(-c3ccc(Cl)cc3)c12`, the AC50 was 6.45 µM.
With `Cc1ccc2nc(-c3ccc4c(c3)OCCO4)cn2c1` the AC50 was 2.33 µM.
For `NS(=O)(=O)c1ccc(CNc2ccc3ccccc3n2)cc1`, the AC50 was > 50 µM.
`O=C(CCC(=O)N1CCOc2ccc(Cl)cc21)N1CCN(c2ccccn2)CC1` was tested, and the AC50 was > 50 µM.
In the case of `COc1ccc2c(c1OC)OCC2C` (stereo unspecified), the AC50 is reported as 30.2 µM.
For `Cc1ccc(S(=O)(=O)N(Cc2cc3ccccc3[nH]c2=O)c2cccc(C)c2)cc1`, the AC50 was 8.17 µM.
`COC(=O)C1CC23C=CCN4CCC5(c6ccccc6NC15C2C)C43` (stereo unspecified) gave an AC50 of 4.17 µM.
With `CC(=O)Nc1ccc(-c2csc(NC(=O)CN3C(=O)NC4(CCCC4)C3=O)n2)cc1` the AC50 was > 50 µM.
Work on `COc1ccc(S(=O)(=O)Nc2cccc3ccc(O)cc23)cc1` yielded an AC50 of 6.82 µM.
`N#Cc1nc(NCC(F)F)nc(Nc2cc(F)cc(F)c2)n1` was tested, and the AC50 was 16 µM.
In the case of `CC(C)n1cc(/C=C/c2cc[n+](C)cc2)c2ccccc21`, the AC50 is reported as 27.2 µM.
`Cc1cc(C(=O)N/N=C/c2ccc([N+](=O)[O-])cc2)c2ccccc2n1` was tested, and the AC50 was 3.96 µM.
`Cc1ccc(C)c(CSc2nc3[nH]ncc3c(=O)[nH]2)c1` showed an AC50 of 2.57 µM.
`CC(=O)O[C@H]1C(=O)[C@]2(C)[C@H]([C@H](OC(=O)c3ccccc3)[C@]3(O)C[C@H](OC(=O)[C@H](O)[C@@H](NC(=O)c4ccccc4)c4ccccc4)C(C)=C1C3(C)C)[C@]1(OC(C)=O)CO[C@@H]1C[C@@H]2O` showed an AC50 of 0.339 µM.
In the case of `Cc1cc(NCc2ccccn2)n2ncc(-c3ccccc3)c2n1`, the AC50 is reported as 15.9 µM.
In the case of `COc1ccc(C(=O)NCC(c2ccco2)N2CCc3ccccc32)cc1` (stereo unspecified), the AC50 is reported as 2.69 µM.
Compound `CCN1/C(=C/c2ccc3cc(C)cc(C)c3[n+]2CC)Sc2cc(C)ccc21` has an AC50 of 12.4 µM.
Compound `COc1ccc(-c2cc(NC=O)c3ncc(-c4ccc(OC)c(OC)c4)n3c2)cc1` has an AC50 of 22.3 µM.
Work on `N#C/C(=C\c1ccccn1)c1nc2ccccc2s1` yielded an AC50 of 24.2 µM.
Compound `C[C@@H]1O[C@@H](O[C@@H]2C=C3CC[C@@H]4C(CC[C@]5(C)[C@@H](c6ccc(=O)oc6)CC[C@]45O)[C@@]3(C)CC2)[C@H](O)[C@H](O)[C@H]1O` (stereo partly specified) has an AC50 of 1.42 µM.
With `O=C(NN=C1CCCC1)c1[nH]c2ccc(Cl)cc2c1-c1ccccc1` the AC50 was 6.72 µM.
Compound `Cc1ccc(S(=O)(=O)N2CCCCC2CCNC(=O)C(=O)NCc2ccccc2)cc1` (stereo unspecified) has an AC50 of 3.29 µM.
For `CCCOc1cc(N(CC)CC)ccc1/C=C(/C#N)c1nc2ccc(C)cc2[nH]1`, the AC50 was 6.15 µM.
In the case of `CCOc1ccc2[nH]c(C(=O)N/N=C/c3ccc(OC)cc3)cc2c1`, the AC50 is reported as 36.4 µM.
In the case of `Cc1cc(/C=N/n2c(COc3ccccc3C)nc3ccccc3c2=O)c(O)c([N+](=O)[O-])c1`, the AC50 is reported as 5.53 µM.
Work on `Nc1sc(-c2ccccc2)cc1-c1n[nH]c(=S)n1C1CCCCC1` yielded an AC50 of 2.45 µM.
`COc1ccc2[nH]c(C(=O)N/N=C/c3ccc(O)cc3O)cc2c1` was tested, and the AC50 was 4.83 µM.
`COC(=O)c1[nH]c2c(c1C)C(=O)CC(c1cccc(OC)c1)C2` (stereo unspecified) gave an AC50 of 0.965 µM.
Work on `O=C(NCc1ccccc1)C1Cc2c(-c3cccc(F)c3)ccnc2O1` (stereo unspecified) yielded an AC50 of 0.893 µM.
`COC1C(C)OC(OC2CC(C)(O)Cc3cc4c(c(O)c32)C(=O)c2c(O)cc3c(c2C4=O)OC2OC3(C)C(O)C(N(C)C)C2O)C(OC)C1(C)OC` (stereo unspecified) showed an AC50 of 14.3 µM.
For `COC(=O)c1ccc(C(=O)NC2CCCc3c2cnn3-c2ccc(C)c(C)c2)cc1` (stereo unspecified), the AC50 was 1.02 µM.
Work on `O=C(CN(Cc1ccco1)Cc1ccco1)Nc1cc(S(=O)(=O)N2CCCCC2)ccc1Cl` yielded an AC50 of 17.2 µM.
`CCN(CC)CCCNc1nc2ccccc2c2nc(-c3ccncc3)nn12` was tested, and the AC50 was 6.34 µM.
With `O=C(N/N=C/c1c(O)ccc2ccccc12)c1ccc(Br)o1` the AC50 was 6.34 µM.
With `N=C1/C(=C/c2cccn2CCOc2ccccc2)C(=O)N=C2SC=C(c3ccccc3)N12` the AC50 was 10.8 µM.
`COc1cc(-c2nccc3cc4c(cc23)OCO4)cc(OC)c1OC` gave an AC50 of 6.02 µM.
`C[C@@H](N)Cc1cnc[nH]1` gave an AC50 of 20.1 µM.
In the case of `COc1ccc(/C(C)=N/NC(=O)c2cccc(S(=O)(=O)N3CCCC3)c2)c(O)c1`, the AC50 is reported as > 50 µM.
For `COc1ccccc1Nc1nc(-c2sc(NC(=O)C(C)(C)C)nc2C)cs1`, the AC50 was 3.84 µM.
`CC1OC(OC2CC(O)C3(CO)C4C(O)CC5(C)C(C6=CC(=O)OC6)CCC5(O)C4CCC3(O)C2)C(O)C(O)C1O` (stereo unspecified) was tested, and the AC50 was 3.38 µM.
